Here are results for 14 compounds from PubChem BioAssay (NCI).

Holding throughout (assay): DTP human tumour cell line panel, 48 h
The test system of assay [1] is CAKI-1 renal.
Assay [2] relates to CCRF-CEM leukemia.
The subject of assay [3] is COLO 205 colon.
For assay [4], the system named is HCT-116 colon.
Assay [5] has as its system HS 578T breast.
Assay [6] has as its system MALME-3M melanoma.
The test system of assay [7] is RPMI-8226 leukemia.
Assay [8] concerns SK-OV-3 ovarian.
Assay [9] has as its system SNB-75 CNS.
Assay [10] has as its system SW-620 colon.

Values joined by “and” are separate entries in the source; they are usually repeats but may differ in a detail not shown here. Equal values may be shown once.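 Five concentrations, 48 hours, 96-well plates. GI50: concentration for 50% inhibition of growth. TGI denotes the concentration required for complete inhibition of growth.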 Bounds are passed on as bounds.

Turning to `CCN1c2ccccc2C(Cl)(c2ccc(N(C)C)cc2)c2ccccc21`, the GI50 (in general, the concentration giving 50% growth inhibition) was 14.5 µM in assay [1]; 2.34 µM in assay [2]; 2.31 µM in [3]; 2.66 µM in [4]; 4.89 µM in assay [5]; 3.33 µM in assay [6]. Besides, the GI50 in assay [7] is 1.07 µM; in [8], 4.97 µM; in assay [9], 5.16 µM; in [10], 2.9 µM. Moreover, the TGI (in general, the concentration at which net growth stops) in assay [1] worked out at 49.4 µM; in assay [2] it was 17 µM; in [3], 7.73 µM; in assay [4], 10.3 µM; in assay [5] it was 27.3 µM; in assay [6], 12.4 µM. The total growth inhibition concentration (TGI) in assay [7] came to 4.04 µM; in assay [8], 18.2 µM; in assay [9], 18.2 µM; in assay [10], 12.1 µM.
For `COc1ccccc1C#Cc1ccccc1C#CCCCCCC#Cc1ccccc1C#Cc1ccccc1OC`, the GI50 was 41.2 µM in assay [1]; 65.4 µM in assay [2]; 80.1 µM in assay [3]; 58 µM in assay [4]; more than 100 µM in assay [5]; more than 100 µM in [6]. For the same compound, the GI50 in assay [7] is 29 µM; in assay [8] it was more than 100 µM; in assay [9], 1.81 µM; in [10], more than 100 µM. In addition, the TGI in [1], in assay [2], in assay [3], in [4], in [5] and in assay [6] was more than 100 µM each time. The TGI was more than 100 µM in [7], more than 100 µM in assay [8], 14.3 µM in assay [9] and more than 100 µM in [10].
`O=C(O)c1ccc(N/C=C2\C(=O)c3ccccc3OC2O)cc1O` (stereo not given): the GI50 in assay [1] is 10.8 µg/mL; in assay [2], 13.8 µg/mL; in assay [3] it was 30.5 µg/mL; in assay [4], 17.9 µg/mL; in assay [5] it was 11.2 µg/mL; in [6], 10 µg/mL. Further, the GI50 was 2.45 µg/mL in assay [7], 28.8 µg/mL in assay [8], 17.7 µg/mL in assay [9] and 20.3 µg/mL in [10]. Also, the total growth inhibition concentration (TGI) in assay [1] worked out at 32.5 µg/mL; in assay [2], 59.6 µg/mL; in [3], 76.4 µg/mL; in assay [4], 42.7 µg/mL; in assay [5] it was 76.5 µg/mL; in [6], 38.9 µg/mL. The TGI turned out to be 8.67 µg/mL in [7], 74.6 µg/mL in assay [8], 84.3 µg/mL in assay [9] and 48.3 µg/mL in [10].
Take `O=C(Cc1cccc(OC(F)(F)F)c1)Nc1ccc(CCCCc2nnc(NC(=O)Cc3ccccn3)s2)nn1`: the GI50 was 4.81 µM in assay [1]; 32.1 µM in assay [2]; 23.8 µM in assay [3]; 16.2 µM in [4]; 13.8 µM in assay [5]; 28.6 µM in [6]. The GI50 in assay [7] was 0.452 µM; in assay [8], 11.6 µM; in assay [9], 11.1 µM; in [10], 40.4 µM. Moreover, the concentration for total growth inhibition (TGI) is more than 100 µM in [1]; more than 100 µM in assay [2]; more than 100 µM in [3]; more than 100 µM in [4]; 40.2 µM in assay [5]; more than 100 µM in assay [6]. The TGI in [7] is 32.3 µM; in assay [8] it was 25.1 µM; in [9], 38.6 µM; in [10], more than 100 µM.
For the compound `COc1ccc2c(c1)C(c1ccccc1Cl)=Nc1c(n[nH]c1C)N2`, the GI50 was more than 8.82 µM in [1]; more than 25 µM in assay [2]; 11.7 µM in assay [3]; 11.2 µM in [4]; 3.43 µM in [5]; more than 25 µM in [6]. Besides, the GI50 was more than 25 µM in assay [7], more than 25 µM in [8], 3.14 µM in assay [9] and more than 16.1 µM in assay [10]. Besides, the TGI in assay [1] was more than 25 µM; in [2], more than 25 µM; in assay [3] it was more than 25 µM; in assay [4] it was more than 25 µM; in [5], 20.3 µM; in assay [6], more than 25 µM. Besides, the TGI in assay [7] is more than 25 µM; in [8], more than 25 µM; in assay [9], more than 17.3 µM; in assay [10], more than 25 µM.
Take `COc1ccc2c(c1)C(=O)/C(=C/c1ncc([N+](=O)[O-])n1C)O2`: the GI50 in assay [1] was 0.23 µM; in [2] it was 0.141 µM; in [3], 1.07 µM; in assay [4] it was 0.176 µM; in [5], 0.74 µM; in assay [6], 0.288 µM. The GI50 in assay [7] is 0.416 µM; in assay [8], 2.11 µM; in assay [9], 1.12 µM; in assay [10], 0.0843 µM. In addition, the TGI in [1] came out at 0.617 µM; in assay [2], 0.622 µM; in [3] it was 3.9 µM; in assay [4], 0.48 µM; in assay [5], 10.9 µM; in assay [6] it was 1.07 µM. The TGI in [7] turned out to be 2.06 µM; in [8], 6.43 µM; in [9], 2.63 µM; in assay [10], 0.426 µM.
In the case of `C=C1C(=O)O[C@H]2[C@H]1CC/C(COC(=O)CSCC(=O)OC/C1=C/CC[C@@]3(C)O[C@H]3[C@H]3OC(=O)C(=C)[C@@H]3CC1)=C\CC[C@@]1(C)O[C@@H]21`, the GI50 is 1.57 µM in assay [1]; 0.268 µM in [2]; 0.887 µM in assay [3]; 0.466 µM in assay [4]; 3.52 µM in [5]; 1.24 µM in assay [6]. Also, the GI50 in [7] is 1.45 µM; in [8], 15.6 µM; in [9], 3.13 µM; in assay [10] it was 1.02 µM. Also, the TGI in assay [1] was 3 µM; in [2], 1.25 µM; in assay [3] it was 2.44 µM; in assay [4], 1.59 µM; in assay [5], 19.3 µM; in [6], 2.8 µM. The TGI in assay [7] amounted to 4.01 µM; in [8] it was 29.1 µM; in assay [9] it was 10.5 µM; in assay [10] it was 2.44 µM.
Take `O=C(N/N=C/c1ccccc1O)C(=O)Nc1ccc(F)cc1`: the GI50 in assay [1] is 2.24 µM; in [2], 1.35 µM; in assay [3], 3.28 µM; in [4] it was 3.19 µM; in assay [5], 33.8 µM; in assay [6], 10.7 µM. The GI50 in assay [7] was 7.9 µM; in assay [8] it was 10.3 µM; in [9], 14.2 µM; in assay [10], 6.26 µM. In addition, the TGI in [1] was 22 µM; in assay [2] it was 13.4 µM; in [3], more than 100 µM; in [4], more than 100 µM; in assay [5] it was more than 100 µM; in assay [6] it was 82.7 µM. Further, the TGI is more than 100 µM in assay [7], more than 100 µM in assay [8], 69.4 µM in [9] and more than 100 µM in [10].
On to `COc1ccc2nc3cc(Cl)ccc3c(NCCCNCCC(C)O)c2c1` (stereo not given), for which the GI50 was 0.735 µM in [1]; 0.361 µM in assay [2]; 0.217 µM in assay [3]; 0.0569 µM in [4]; 1.05 µM in assay [5]; 0.714 µM in assay [6]. Further, the GI50 in assay [7] is 0.575 µM; in [8] it was 0.465 µM; in [9] it was 0.568 µM; in assay [10] it was 0.234 µM. Moreover, the TGI in assay [1] was 3.43 µM; in assay [2], 2.61 µM; in [3] it was 1.29 µM; in [4], 1.54 µM; in [5] it was 3.62 µM; in [6], 2.21 µM. The total growth inhibition concentration (TGI) in assay [7] was determined as 3.09 µM; in [8], 2.62 µM; in [9], 1.93 µM; in [10] it was 2.25 µM.
As to `c1cn2cc(-c3ccc4cn[nH]c4c3)nc(Nc3ccc(N4CCOCC4)cc3)c2n1`, the GI50 in assay [1] was 8.4 µM; in [2], more than 100 µM; in [3], 41.3 µM; in assay [4], 10.1 µM; in [5], 11.1 µM; in [6], 10.4 µM. Further, the GI50 in assay [7] was 18.5 µM; in [8] it was 6.43 µM; in [9], 1.46 µM; in assay [10], 26.7 µM. The concentration for total growth inhibition (TGI) is 44.3 µM in [1]; more than 100 µM in assay [2]; more than 100 µM in assay [3]; 23.3 µM in assay [4]; 63.8 µM in assay [5]; 27.3 µM in assay [6]. For the same compound, the TGI in assay [7] is 86.6 µM; in assay [8], 19.6 µM; in assay [9], 13.3 µM; in assay [10] it was more than 100 µM.
On to `CC(=O)OC1CC2(O)C3CCC4CC(O)CCC4(C)C3CCC2(C)C1C1=CC(=O)OC1` (stereo not given), for which the TGI in [1] is 0.13 µM; in [2], 1.69 µM; in [3] it was 0.76 µM; in assay [4], 0.186 µM; in [5], more than 100 µM; in [6] it was 0.111 µM. Also, the TGI was 0.445 µM in assay [7], 0.642 µM in assay [8], 0.618 µM in assay [9] and 1.41 µM in assay [10].
Turning to `Cc1c2c[n+](C(C)C)ccc2c(C)c2c1[nH]c1ccccc12`, the GI50 in [1] was more than 100 µM; in assay [2] it was 3.97 µM; in [3] it was 1.77 µM; in assay [4] it was 4.36 µM; in assay [5], 1.13 µM; in [6] it was 1.48 µM. For the same compound, the GI50 is 1.82 µM in [7], 3.19 µM in [8], 1.34 µM in assay [9] and 3.63 µM in [10]. Also, the concentration for total growth inhibition (TGI) is more than 100 µM in assay [1]; 38.7 µM in assay [2]; 6.46 µM in assay [3]; 68.2 µM in [4]; 19 µM in [5]; 6.9 µM in assay [6]. The TGI turned out to be 13.1 µM in assay [7], 39.8 µM in assay [8], 40.9 µM in [9] and 49.7 µM in assay [10].
Take `C=CCC1(O)c2cccc(NCCO)c2C(=O)c2c(NCCO)cccc21`: the GI50 in [1], in assay [2], in assay [3], in assay [4], in [5] and in assay [6] was more than 100 µM throughout. In addition, the GI50 in [7] is more than 100 µM; in assay [8] it was more than 100 µM; in assay [9] it was 75.3 µM; in assay [10], more than 100 µM. Moreover, the TGI in [1], in assay [2], in assay [3], in [4], in [5] and in assay [6] was more than 100 µM throughout. Moreover, the concentration for total growth inhibition (TGI) in assay [7], in assay [8], in assay [9] and in [10] was more than 100 µM throughout.
Regarding `Cc1cc(Nc2ncnc3ccc(NC4=NC(C)(C)CO4)cc23)ccc1Oc1ccn2ncnc2c1`, the GI50 in assay [1] was 6.3 µM and > 10 µM; in assay [2], 15.6 µM and > 10 µM; in [3] it was 14.3 µM and > 10 µM; in assay [4], 21.1 µM and > 10 µM; in [5], 15.2 µM and > 10 µM; in assay [6] it was 14.7 µM and > 10 µM. Also, the GI50 in assay [7] is 9.87 µM and 6.82 µM; in [8] it was 0.0526 µM; in [9], 15.6 µM and > 10 µM; in assay [10], 20.5 µM and > 10 µM. In addition, the TGI was more than 61.1 µM in assay [1]; more than 95.8 µM in assay [2]; 32.3 µM and > 10 µM in assay [3]; more than 80.1 µM in assay [4]; 62.4 µM and > 10 µM in assay [5]; 35.7 µM and > 10 µM in assay [6]. Besides, the TGI is 33.5 µM and > 10 µM in assay [7]; more than 94.1 µM in [8]; 51.9 µM and > 10 µM in assay [9]; 41.2 µM and > 10 µM in [10].
